One experiment deals with HsMetAP2 (Homo sapiens, UniProt P50579). As to the kind of experiment: biochemical.
For another experiment, the target named is HsMetAP1 (Homo sapiens, UniProt P53582). Put plainly: biochemical.
In experiment [1] the target is T1, EcMetAP (Escherichia coli, UniProt P0AE18).
T1 sequence (P0AE18 2-264): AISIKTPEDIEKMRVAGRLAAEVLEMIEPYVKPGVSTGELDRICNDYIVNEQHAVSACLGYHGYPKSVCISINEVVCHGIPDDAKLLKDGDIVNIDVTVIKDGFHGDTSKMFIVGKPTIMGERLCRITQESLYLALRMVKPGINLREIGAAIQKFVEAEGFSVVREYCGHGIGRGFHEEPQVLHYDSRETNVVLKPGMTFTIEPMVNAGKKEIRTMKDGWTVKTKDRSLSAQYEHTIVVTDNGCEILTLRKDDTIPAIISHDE
As to the kind of experiment: biochemical.

Experiment [2] has as its target T1, EcMetAP. Put plainly: coupled fluorogenic Met-Gly-Pro-AMC / DPPIV assay. In kind it is biochemical.

Broadly, the IC50 is the concentration that gives 50% inhibition. Low values mean higher potency, high ones lower potency.

Square brackets hold non-standard residues; d marks the D form. Peptide text beside a SMILES is read from it. NMeY = CN[C@@H](Cc1ccc(O)cc1)C(=O)O; NMeT = CN[C@H](C(=O)O)[C@@H](C)O; NMeL = CN[C@@H](CC(C)C)C(=O)O

HsMetAP2, sequence (P50579 2-478): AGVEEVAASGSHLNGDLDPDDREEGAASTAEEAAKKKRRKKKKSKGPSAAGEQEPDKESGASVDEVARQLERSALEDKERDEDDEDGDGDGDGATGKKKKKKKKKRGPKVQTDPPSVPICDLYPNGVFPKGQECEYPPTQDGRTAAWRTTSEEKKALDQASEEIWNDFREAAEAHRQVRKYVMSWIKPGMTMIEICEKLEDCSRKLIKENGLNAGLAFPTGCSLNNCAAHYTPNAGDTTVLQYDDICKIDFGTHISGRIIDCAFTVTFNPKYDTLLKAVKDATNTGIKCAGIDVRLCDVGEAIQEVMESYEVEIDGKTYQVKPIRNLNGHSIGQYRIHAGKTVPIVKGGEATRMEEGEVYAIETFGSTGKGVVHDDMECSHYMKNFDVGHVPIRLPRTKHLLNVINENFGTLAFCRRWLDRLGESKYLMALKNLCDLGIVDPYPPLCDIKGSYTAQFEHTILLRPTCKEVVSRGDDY

As for `CN[C@@H](Cc1ccc(O)cc1)C(=O)N(C)[C@H](C(=O)N(C)[C@@H](CC(C)C)C(=O)OC)[C@@H](C)OC` [NMe-Monomer] (H-[NMeY]-[NMeT](Me)-[NMeL]-OMe), the IC50 at HsMetAP2 and against HsMetAP1 was > 2000 µM each time.

Turning to `CO[C@@H]1[C@H](OC(=O)NC(=O)CCl)CC[C@]2(CO2)[C@H]1[C@@]1(C)O[C@@H]1CC=C(C)C` [TNP-470], the half-inhibitory concentration (IC50) on HsMetAP2 was 0.69 ± 0.05 µM; on HsMetAP1 it was > 2000 µM; on EcMetAP [1], > 2000 µM.

For `CCCCCCCCCCCCCC(=O)O[C@H]1CC[C@H](NC(=O)[C@H](OC)[C@H](O)[C@@H](O)[C@H](O)/C=C/C(C)C)C(=O)N(C)C1` [bengamide B], the IC50 against EcMetAP [1] is > 2000 µM.

On to `CC(C)CC1C(=O)OC(C)C(N(C)C(=O)C(Cc2ccc(O)cc2)N(C)C)C(=O)N(C)C(CC(C)C)C(=O)OC(C)C(N(C)C(=O)C(Cc2ccc(O)cc2)N(C)C)C(=O)N1C` (stereo not shown) [metapeptin A], for which the concentration for half-maximal inhibition (IC50) at HsMetAP2, on HsMetAP1 and against EcMetAP [1] was > 2000 µM throughout.

`CNC(Cc1ccc(O)cc1)C(=O)N(C)C1C(=O)N(C)C(CC(C)C)C(=O)OC(C)C(N(C)C(=O)C(Cc2ccc(O)cc2)N(C)C)C(=O)N(C)C(CC(C)C)C(=O)OC1C` (stereo not shown) [metapeptin B]: the half-maximal inhibitory concentration (IC50) at EcMetAP [2] was ~0.5 µM; against HsMetAP2, > 2000 µM; against HsMetAP1, 49.7 ± 3.98 µM; on EcMetAP [1] it was 0.47 ± 0.29 µM.

These data come from publication doi:10.1101/2022.06.11.495772v2 (biorxiv, 2022).
